Each structure is given as a SMILES string.

The target of series [1] is human recombinant PDE5 (Homo sapiens, UniProt O76074). Kind of series: Inhibitory effect on cGMP-PDE (one-step assay adapted from Wells et al.). Type of series: biochemical. The settings on record: human recombinant PDE5, 0.15 μM 8-[H3]-cGMP, 30 minutes incubation, 2% DMSO. As to the method: cGMP-PDE activity of compounds of the present invention was measured using a one-step assay adapted from Wells et al., Biochim. Biophys. Acta, 384, 430 (1975). The reaction medium contained 50 mM Tris-HCl, pH 7.5, 5 mM magnesium acetate, 250 μg/ml 5′-Nucleotidase, 1 mM EGTA, and 0.15 μM 8-[H^3]-cGMP. The enzyme used was a human recombinant PDE5 (ICOS Corp., Bothell, Wash.).
Compounds of the invention were dissolved in DMSO finally present at 2% in the assay.

Series [2] relates to Rat aortic smooth muscle cells (RSMC). Kind of series: cGMP level measurements in ANF-stimulated rat aortic smooth muscle cells. Format: cell-based. The settings on record: 30 minutes at 37° C. with compound, then ANF (100 nM) for 10 minutes, dose giving half of the stimulation at saturating concentrations. As to the method: Rat aortic smooth muscle cells (RSMC), prepared according to Chamley et al., Cell Tissue Res., 177, 503-522 (1977), were used between the 10th and 25th passage at confluence in 24-well culture dishes. Culture media was aspirated and replaced with PBS (0.5 ml) containing the compound tested at the appropriate concentration. After 30 minutes at 37° C., particulates guanylate cyclase was stimulated by addition of ANF (100 nM) for 10 minutes. At the end of incubation, the medium was withdrawn, and two extractions were performed by addition of 65% ethanol (0.25 ml). The two ethanolic extracts were pooled and evaporated until dryness, using a Speed-vac system. cGMP was measured after acetylation by scintillation proximity immunoassay (AMERSHAM). The EC50 values are expressed as the dose-giving half of the stimulation at saturating concentrations.

For series [3], the system named is conscious spontaneously hypertensive rats (SHRs). Kind of series: Hypotensive effects in conscious spontaneously hypertensive rats. Type of series: in vivo, rat. The settings on record: orally 5 mg/kg in 5% DMF and 95% olive oil; AUC from 0 to 5 hours of the fall in blood pressure. As to the method:
The hypotensive effects of compounds according to the invention as identified in Table 2 were studied in conscious spontaneously hypertensive rats (SHRs). The compounds were administered orally at a dose of 5 mg/kg in a mixture of 5% DMF and 95% olive oil. Blood pressure was measured from a catheter inserted in the carotid artery and recorded for five hours after administration. The results are expressed as Area Under the Curve (AUC) from 0 to 5 hours, mm Hg.hours of the fall in blood pressure over time.

Turning to `O=C(/C=C/c1cccnc1)N1CCc2c([nH]c3ccccc23)C1c1ccc2c(c1)OCO2` (stereo not drawn) [Example 1, (E)-1-[1-(3,4-Methylenedioxyphenyl)-2,3,4,9-tetrahydro-β-carbolin-2-yl]-3-(pyridin-3-yl)-propene-1-one], the melting point was 240 °C. The IC50 in series [1] came out at 58 nM. For the same compound, in series [2], the EC50 amounted to 500 nM. Besides, the “SHR AUC PO” value in series [3] came out at 61 mm Hg.h.

Compound `O=C(/C=C/c1ccccn1)N1CCc2c([nH]c3ccccc23)C1c1ccc2c(c1)OCO2` (stereo not drawn) [Example 2, (E)-1-[1-(3,4-Methylenedioxyphenyl)-2,3,4,9-tetrahydro-β-carbolin-2-yl]-3-(pyridin-2-yl)-propene-1-one] returned a melting point of 135 to 141 °C. Moreover, the IC50 in series [1] was found to be 76 nM.

`O=C(/C=C/c1ccccn1)N1CCc2c([nH]c3ccccc23)C1c1ccccc1` (stereo not drawn) [Example 3, (E)-1-[1-phenyl-2,3,4,9-tetrahydro-β-carbolin-2-yl]-3-(pyridin-2-yl)-propene-1-one] displayed a melting point of 130 to 135 °C. Moreover, the IC50 in series [1] turned out to be 740 nM.

The compound `O=C(/C=C/c1ccncc1)N1CCc2c([nH]c3ccccc23)C1c1ccc2c(c1)OCO2` (centres unmarked) [Example 4] displayed a melting point of 224 to 225 °C. The IC50 in series [1] turned out to be 46 nM. Also, the EC50 in series [2] was 500 nM.

In turn, `O=C(/C=C/c1cccnc1)N1CCc2c([nH]c3ccccc23)C1c1ccc2c(c1)CCO2` (stereo not drawn) [Example 5, (E)-1-[1-(2,3-Dihydrobenzofuran-5-yl)-2,3,4,9-tetrahydro-β-carbolin-2-yl]-3-(pyridin-3-yl)-propene-1-one] displayed a melting point of 221 to 222 °C. Also, the IC50 in series [1] is 14 nM. The EC50 in series [2] was less than 1000 nM. Further, the “SHR AUC PO” value in series [3] amounted to 12 mm Hg.h.

As to `CN(C)CCOc1ccc(/C=C/C(=O)N2CCc3c([nH]c4ccccc34)[C@H]2c2ccc3c(c2)CCO3)cn1` [Example 6, (E)-1R-1-[1-(2,3-Dihydrobenzofuran-5-yl)-2,3,4,9-tetrahydro-β-carbolin-2-yl]-3-[6-(2-dimethylaminoethoxy)-pyridin-3-yl]-propene-1-one], the melting point is 155 °C. For the same compound, the concentration for half-maximal inhibition (IC50) in series [1] was found to be 10 nM. The EC50 in series [2] was less than 1000 nM. Further, the “SHR AUC PO” value in series [3] is listed as 95 mm Hg.h.

The compound `CN(C)c1ccc(/C=C/C(=O)N2CCc3c([nH]c4ccccc34)[C@H]2c2ccc3c(c2)CCO3)cn1` [Example 7, (E)-(R)-1-[1-(2,3-Dihydrobenzofuran-5-yl)-2,3,4,9-tetrahydro-β-carbolin-2-yl]-3-(6-dimethylamino-pyridin-3-yl)-propene-1-one] yielded a melting point of 171 °C. Moreover, the IC50 in series [1] was determined as 6 nM. Moreover, in series [2], the EC50 is less than 1000 nM. Besides, the “SHR AUC PO” value in series [3] stood at 156 mm Hg.h.

In turn, `CNc1ccc(/C=C/C(=O)N2CCc3c([nH]c4ccccc34)[C@H]2c2ccc3c(c2)CCO3)cn1` [Example 8, (E)-(R)-1-[1-(2,3-Dihydrobenzofuran-5-yl)-2,3,4,9-tetrahydro-β-carbolin-2-yl]-3-(6-methylaminopyridin-3-yl)-propene-1-one] displayed a melting point of 171 °C. For the same compound, the IC50 in series [1] stood at 7 nM. In addition, in series [2], the EC50 was less than 1000 nM. Further, the “SHR AUC PO” value in series [3] is reported as 50 mm Hg.h.

Consider `CN1CCN(c2ccc(/C=C/C(=O)N3CCc4c([nH]c5ccccc45)[C@H]3c3ccc4c(c3)CCO4)cn2)CC1` [Example 9, (E)-(R)-1-[1-(2,3-Dihydrobenzofuran-5-yl)-2,3,4,9-tetrahydro-β-carbolin-2-yl]-3-[6-(4-methylpiperazin-1-yl)-pyridin-3-yl]-propene-1-one], for which the melting point is more than 260 °C. Besides, the IC50 in series [1] was found to be 25 nM. Besides, the EC50 in series [2] came out at 1000 nM. Besides, the “SHR AUC PO” value in series [3] is reported as 63 mm Hg.h.

For the compound `O=C(/C=C/c1ccc(N2CCCC2)nc1)N1CCc2c([nH]c3ccccc23)[C@H]1c1ccc2c(c1)CCO2` [Example 10, (E)-(R)-1-[1-(2,3-Dihydrobenzofuran-5-yl)-2,3,4,9-tetrahydro-β-carbolin-2-yl]-3-(6-pyrrolidin-1-yl-pyridin-3-yl)-propene-1-one], the melting point worked out at 201 °C. The 50% inhibitory concentration (IC50) in series [1] was determined as 9 nM. Besides, the half-maximal effective concentration (EC50) in series [2] was less than 1000 nM.

`COC(=O)c1ccc(/C=C/C(=O)N2CCc3c([nH]c4ccccc34)[C@H]2c2ccc3c(c2)CCO3)nc1` [Example 11, (E)-(R)-6-{3-[1-(2,3-Dihydrobenzofuran-5-yl)-2,3,4,9-tetrahydro-β-carbolin-2-yl]-3-oxo-propenyl}-nicotinic acid methyl ester]: the melting point was more than 260 °C. Further, in series [1], the IC50 was determined as 27 nM. Also, the half-maximal effective concentration (EC50) in series [2] is less than 1000 nM.

Take `O=C(O)c1ccc(/C=C/C(=O)N2CCc3c([nH]c4ccccc34)[C@H]2c2ccc3c(c2)CCO3)nc1` [Example 12, (E)-(R)-6-{3-[1-(2,3-Dihydrobenzofuran-5-yl)-2,3,4,9-tetrahydro-β-carbolin-2-yl]-3-oxo-propenyl}-nicotinic acid]: the melting point is 183 °C. The IC50 in series [1] is 3 nM. For the same compound, in series [2], the EC50 was determined as 5000 nM.

Take `CN(C)Cc1ccc(/C=C/C(=O)N2CCc3c([nH]c4ccccc34)[C@H]2c2ccc3c(c2)CCO3)cn1` [Example 13, (E)-(R)-1-[1-(2,3-Dihydrobenzofuran-5-yl)-2,3,4,9-tetrahydro-β-carbolin-2-yl]-3-(6-dimethylaminomethyl-pyridin-3-yl)-propene-1-one]: the melting point is 163 °C. Further, the IC50 in series [1] stood at 30 nM. Further, in series [2], the EC50 was less than 1000 nM. The “SHR AUC PO” value in series [3] stood at 57 mm Hg.h.

Values taken from patent publication US6462047B1, “Carboline derivatives as cGMP phosphodiesterase inhibitors” (ICOS Corporation, priority 2001, dated 2002).
